From patent publication US20240269298A1, “PHOSPHONYL DERIVATIVE, AND COMPOSITION AND PHARMACEUTICAL APPLICATION THEREOF” (XIZANG HAISCO PHARMACEUTICAL CO., LTD., priority 2021, published 2024)
Where two headings read alike, the source gives them in different places.

What was measured:
[1] = target: T1, EGFR protein in NCI-H1975 EGFR-L858R-T790M-C797S cells (Homo sapiens, UniProt P00533, C797S/L858R/T790M); experiment: Degradation activity on EGFR protein in NCI-H1975 EGFR-L858R-T790M-C797S cells, Method I (western blot, 72 h); assay type: cell-based; conditions: 72 h incubation, EGFR protein relative to DMSO control
T1 construct: expressed in transfected cells; host or cells: NCI-H1975 EGFR-L858R-T790M-C797S (kept under hygromycin selection)
T1 sequence (P00533 25-1210 T790M/C797S/L858R): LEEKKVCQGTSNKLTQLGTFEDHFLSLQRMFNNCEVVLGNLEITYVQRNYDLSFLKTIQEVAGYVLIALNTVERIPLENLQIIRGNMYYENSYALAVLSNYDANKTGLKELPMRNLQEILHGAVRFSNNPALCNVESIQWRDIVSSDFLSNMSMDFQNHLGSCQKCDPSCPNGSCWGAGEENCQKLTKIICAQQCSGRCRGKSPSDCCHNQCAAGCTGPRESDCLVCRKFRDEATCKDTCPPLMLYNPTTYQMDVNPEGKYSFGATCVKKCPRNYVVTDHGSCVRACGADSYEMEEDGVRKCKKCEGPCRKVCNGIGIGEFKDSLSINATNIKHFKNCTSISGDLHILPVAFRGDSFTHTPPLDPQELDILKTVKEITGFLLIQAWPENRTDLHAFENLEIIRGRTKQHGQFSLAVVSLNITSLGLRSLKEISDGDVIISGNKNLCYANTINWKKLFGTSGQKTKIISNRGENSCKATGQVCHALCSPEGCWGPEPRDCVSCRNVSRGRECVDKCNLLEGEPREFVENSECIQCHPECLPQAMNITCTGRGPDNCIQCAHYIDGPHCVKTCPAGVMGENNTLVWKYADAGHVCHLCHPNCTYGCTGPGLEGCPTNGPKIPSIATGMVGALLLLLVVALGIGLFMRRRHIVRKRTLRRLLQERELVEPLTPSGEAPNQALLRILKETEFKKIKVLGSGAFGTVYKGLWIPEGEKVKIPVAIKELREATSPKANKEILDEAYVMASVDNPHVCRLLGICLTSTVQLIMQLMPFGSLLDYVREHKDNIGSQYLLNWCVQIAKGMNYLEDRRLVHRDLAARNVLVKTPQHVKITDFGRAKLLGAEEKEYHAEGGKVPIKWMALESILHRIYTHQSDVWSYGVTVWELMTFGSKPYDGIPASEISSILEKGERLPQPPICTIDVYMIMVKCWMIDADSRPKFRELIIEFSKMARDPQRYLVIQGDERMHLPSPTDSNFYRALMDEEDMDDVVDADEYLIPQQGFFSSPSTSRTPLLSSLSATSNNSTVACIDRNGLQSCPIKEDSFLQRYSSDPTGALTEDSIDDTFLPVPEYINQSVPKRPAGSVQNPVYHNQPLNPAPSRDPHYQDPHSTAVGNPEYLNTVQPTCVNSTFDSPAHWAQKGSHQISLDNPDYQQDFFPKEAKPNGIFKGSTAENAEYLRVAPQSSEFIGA
Experimental: (§1) Protein sample preparation: NCI-H1975 EGFR-L858R-T790M-C797S cells were cultured in an incubator at 37° C. with 5% CO2, and the culture medium was RPMI1640+10% FBS+100 μg/mL hygromycin. The cells in the logarithmic phase were collected, and the cell suspension was adjusted to an appropriate concentration with a hygromycin-free culture medium, plated on a 6-well plate at a density of 200000 cells/well and a volume of 2 mL, and cultured overnight in an incubator at 37° C. with 5% CO2. The next day, the compounds at different concentrations were added. DMSO control wells were provided, wherein the concentration of DMSO in all wells was 0.1%. The 6-well plate was cultured in an incubator at 37° C. with 5% CO2 for 72 h, and then 30 μL of RIPA lysates (Beyotime, Cat. P0013B) containing protease inhibitors (Beyotime, Cat. P0013B) were added. The mixtures were lysed on ice for 30 min. Centrifugation was carried out at 13000 rpm/min at 4° C. for 20 min to collect protein supernatant samples, and protein quantification was performed by the BCA method. Samples for western blot detection were prepared.
(§2) Western blot detection: 20 μg of protein samples were added to each well, subjected to polyacrylamide gel electrophoresis and transferred to a membrane, and then diluted anti-EGFR (CST, Cat. 4267S) and […] (Kangchen, Cat. KC-5G4) antibodies were added and incubated overnight at 4° C. After washing the membrane, diluted goat anti-rabbit (Licor, Cat. 926-32211) and goat anti-mouse (Licor, Cat. 926-68070) antibodies were added and incubated in the dark for 45 min. Scanning and detection at wavelengths of 700 nm and 800 nm were performed with a far-infrared imaging system (Odyssey).
(§3) According to formula (3), the expression level of EGFR protein in the cells relative to the DMSO control group was calculated after incubation with different concentrations of compounds. wherein EGFRcompound was the fluorescence value of EGFR protein after incubation with compounds, and EGFRvehicle was the fluorescence value of EGFR protein in the DMSO control group. Using the Origin 9.2 software, the drug concentration DC50 values when the expression level of EGFR protein was 50% relative to the DMSO control group were calculated.

A431 (EGFR-WT) cells = experiment: Inhibitory activity on proliferation of A431 (EGFR-WT) cells (CTG, 72 h); assay type: cell-based; conditions: Homo sapiens, A-431
Summary of the method: (§4)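 Cells plated at 1000/well (NCI-H1975, RPMI1640+10% FBS) or 3000/well (A431, DMEM+10% FBS), dosed next day with compounds (0.1% DMSO final) for 72 h at 37 °C, 5% CO2. Viability by CTG luminescence, normalised to vehicle control; IC50 from nonlinear-regression dose-survival curves.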

[2] = Pharmacokinetic test in mice; assay type: in vivo; conditions: male, ICR, mouse, po, administration i.g. (10 mg/kg), plasma
Summary of the method: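 Male ICR mice (20-25 g), fasted 12-14 h before dosing and fed 4 h after, received a single intravenous or intragastric dose. Orbital plasma sampled from 0 to 24 h (5 min-24 h points); LC-MS/MS quantitation for PK parameters and bioavailability.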

[3] = tested on: NCI-H1975 EGFR-L858R-T790M-C797S cells; experiment: Inhibitory activity on proliferation of NCI-H1975 EGFR-L858R-T790M-C797S cells (CellTiter-Glo, 72 h); assay type: cell-based; conditions: Homo sapiens
Summary of the method: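 Cells (1500/well) exposed to graded compound concentrations for 72 h at 37 °C in hygromycin-free RPMI1640 + 10% FBS, 0.1% DMSO vehicle. Viability by CellTiter-Glo luminescence relative to vehicle; IC50 from nonlinear sigmoidal dose-survival fit.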

[4] = tested on: NCI-H1975 (EGFR-L858R-T790M) cells; experiment: Inhibitory activity on proliferation of NCI-H1975 (EGFR-L858R-T790M) cells (CTG, 72 h); assay type: cell-based; conditions: Homo sapiens
Summary of the method: as §4

[5] = target: T1, EGFR protein in NCI-H1975 EGFR-L858R-T790M-C797S cells; experiment: Degradation activity on EGFR protein in NCI-H1975 EGFR-L858R-T790M-C797S cells, Method II (western blot, 48 h); assay type: cell-based; conditions: 48 h incubation, EGFR protein relative to DMSO control
Experimental: as §1, with “of 350000” for “of 200000”, “for 48” for “for 72”, “20 minutes” for “20 min”, “method. Western Blot” for “method. Samples for western blot”, “detection samples” for “detection”
as §2, §3

[6] = read-out: IC50 (value in brackets)

DC50 [1] | IC50 (A431 (EGFR-WT) cells) | AUC [2] | half-life [2] | IC50 ([3]; read-out: IC50 (class symbol)) | IC50 ([3]; read-out: IC50 (value)) | IC50 ([4]; read-out: IC50 (class symbol)) | IC50 [4, 6] | DC50 [5] | AUC(0-t) [2] | Compound
< 100 nM | ≥ 10000 nM | 33300 ng·h/mL | 2.49 h | < 200 nM | 84 nM | < 100 nM | 48 nM |  |  | COc1cc(N2CCN(C3CCN(c4ccc5c(c4)C(=O)N(C4CCC(=O)NC4=O)C5=O)CC3)CC2)c(-c2cnn(C)c2)cc1Nc1ncc(Cl)c(Nc2ccc(-c3ccccc3)cc2P(C)(C)=O)n1 (stereo not shown) [Compound 100, 5-(4-(4-(4-((5-chloro-4-((3-(dimethylphosphoryl)-[1,1′-biphenyl]-4-yl)amino)pyrimidin-2-yl)amino)-5-methoxy-2-(1-methyl-1H-pyrazol-4-yl)phenyl)piperazin-1-yl)piperidin-1-yl)-2-(2,6-dioxopiperidin-3-yl)isoindoline-1,3-dione]
 | ≥ 10000 nM | 87900 ng·h/mL | 9.49 h | < 200 nM | 152 nM | 100 to 500 nM | 150 nM | < 100 nM |  | COc1cc(N2CCC(CN3CCN(c4ccc5c(c4)C(=O)N(C4CCC(=O)NC4=O)C5=O)CC3)CC2)c(-c2cnn(C)c2)cc1Nc1ncc(Cl)c(Nc2ccc(-c3ccccc3F)cc2P(C)(C)=O)n1 (stereo not shown) [Compound 102, 5-(4-((1-(4-((5-chloro-4-((3-(dimethylphosphoryl)-2′-fluoro-[1,1′-biphenyl]-4-yl)amino)pyrimidin-2-yl)amino)-5-methoxy-2-(1-methyl-1H-pyrazol-4-yl)phenyl)piperidin-4-yl)methyl)piperazin-1-yl)-2-(2,6-dioxopiperidin-3-yl)isoindoline-1,3-dione]
 | ≥ 10000 nM |  |  | < 200 nM | 101 nM | < 100 nM | 61 nM | < 100 nM | 34700 ng·h/mL | COc1cc(N2CCN(C[C@@H]3CCN(c4ccc5c(c4)C(=O)N(C4CCC(=O)NC4=O)C5=O)C3)CC2)c(-c2cnn(C)c2)cc1Nc1ncc(Br)c(Nc2ccc(-c3ccccc3)cc2P(C)(C)=O)n1 (stereo partly drawn) [Compound 103, 5-((S)-3-((4-(4-((5-bromo-4-((3-(dimethylphosphoryl)-[1,1′-biphenyl]-4-yl)amino)pyrimidin-2-yl)amino)-5-methoxy-2-(1-methyl-1H-pyrazol-4-yl)phenyl)piperazin-1-yl)methyl)pyrrolidin-1-yl)-2-(2,6-dioxopiperidin-3-yl)isoindoline-1,3-dione]
 | ≥ 10000 nM |  |  | < 200 nM | 82 nM | < 100 nM | 54 nM | < 100 nM | 47300 ng·h/mL | COc1cc(N2CCN(C[C@H]3CCN(c4ccc5c(c4)C(=O)N(C4CCC(=O)NC4=O)C5=O)C3)CC2)c(-c2cnn(C)c2)cc1Nc1ncc(Br)c(Nc2ccc(-c3ccccc3)cc2P(C)(C)=O)n1 (stereo partly drawn) [Compound 104, 5-((R)-3-((4-(4-((5-bromo-4-((3-(dimethylphosphoryl)-[1,1′-biphenyl]-4-yl)amino)pyrimidin-2-yl)amino)-5-methoxy-2-(1-methyl-1H-pyrazol-4-yl)phenyl)piperazin-1-yl)methyl)pyrrolidin-1-yl)-2-(2,6-dioxopiperidin-3-yl)isoindoline-1,3-dione]
 | ≥ 10000 nM | 71000 ng·h/mL | 4.83 h | < 200 nM | 135 nM | < 100 nM | 42 nM | < 100 nM |  | COc1cc(N2CCC(CN3CCN(c4ccc5c(c4)C(=O)N(C4CCC(=O)NC4=O)C5=O)CC3)CC2)c(-c2cnn(C)c2)cc1Nc1ncc(Br)c(Nc2ccccc2P(C)(C)=O)n1 (stereo not shown) [Compound 108, 5-(4-((1-(4-((5-bromo-4-((2-(dimethylphosphoryl)phenyl)amino)pyrimidin-2-yl)amino)-5-methoxy-2-(1-methyl-1H-pyrazol-4-yl)phenyl)piperidin-4-yl)methyl)piperazin-1-yl)-2-(2,6-dioxopiperidin-3-yl)isoindoline-1,3-dione]
 | ≥ 10000 nM | 81500 ng·h/mL | 4.53 h |  |  | < 100 nM | 52 nM | < 100 nM |  | COc1cc(N2CCC(CN3CCN(c4ccc5c(c4)C(=O)N(C4CCC(=O)NC4=O)C5=O)CC3)CC2)c(-c2cnn(C)c2)cc1Nc1ncc(Cl)c(Nc2ccccc2P(C)(C)=O)n1 (stereo not shown) [Compound 109, 5-(4-((1-(4-((5-chloro-4-((2-(dimethylphosphoryl)phenyl)amino)pyrimidin-2-yl)amino)-5-methoxy-2-(1-methyl-1H-pyrazol-4-yl)phenyl)piperidin-4-yl)methyl)piperazin-1-yl)-2-(2,6-dioxopiperidin-3-yl)isoindoline-1,3-dione]
 | ≥ 10000 nM |  |  | < 200 nM | 127 nM | < 100 nM | 83 nM | < 100 nM |  | COc1cc(N2CCC(N3CCN(c4ccc5c(c4)C(=O)N(C4CCC(=O)NC4=O)C5=O)CC3)CC2)c(-c2cnn(C)c2)cc1Nc1ncc(Br)c(Nc2ccc(C3CC3)cc2P(C)(C)=O)n1 (stereo not shown) [Compound 112, 5-(4-(1-(4-((5-bromo-4-((4-cyclopropyl-2-(dimethylphosphoryl)phenyl)amino)pyrimidin-2-yl)amino)-5-methoxy-2-(1-methyl-1H-pyrazol-4-yl)phenyl)piperidin-4-yl)piperazin-1-yl)-2-(2,6-dioxopiperidin-3-yl)isoindoline-1,3-dione]
 | ≥ 10000 nM |  |  |  |  | < 100 nM | 68 nM | < 100 nM |  | COc1cc(N2CCC(N3CCN(c4ccc5c(c4)C(=O)N(C4CCC(=O)NC4=O)C5=O)CC3)CC2)c(-c2cnn(C)c2)cc1Nc1ncc(Cl)c(Nc2ccc(C3CC3)cc2P(C)(C)=O)n1 (stereo not shown) [Compound 113, 5-(4-(1-(4-((5-chloro-4-((4-cyclopropyl-2-(dimethylphosphoryl)phenyl)amino)pyrimidin-2-yl)amino)-5-methoxy-2-(1-methyl-1H-pyrazol-4-yl)phenyl)piperidin-4-yl)piperazin-1-yl)-2-(2,6-dioxopiperidin-3-yl)isoindoline-1,3-dione]
 | ≥ 10000 nM |  |  |  |  | < 100 nM | 94 nM | < 100 nM |  | COc1cc(N2CCN(C[C@@H]3CCN(c4ccc5c(c4)C(=O)N(C4CCC(=O)NC4=O)C5=O)C3)CC2)c(-c2cnn(C)c2)cc1Nc1ncc(Br)c(Nc2ccc(-c3ccccc3F)cc2P(C)(C)=O)n1 (stereo partly drawn) [Compound 116, 5-((S)-3-((4-(4-((5-bromo-4-((3-(dimethylphosphoryl)-2′-fluoro-[1,1′-biphenyl]-4-yl)amino)pyrimidin-2-yl)amino)-5-methoxy-2-(1-methyl-1H-pyrazol-4-yl)phenyl)piperazin-1-yl)methyl)pyrrolidin-1-yl)-2-(2,6-dioxopiperidin-3-yl)isoindoline-1,3-dione]
